Assay results as given in US10072026B2, “Crystalline form of 3-((1R,3s,5S)-3-((7-((5-methyl-1H-pyrazol-3-yl)amino)-1,6-naphthyridin-5-yl)amino)-8-azabicyclo[3.2.1]octan-8-yl)propanenitrile” (priority 2015, dated 2018).

How the values were obtained:
JAK1 = JAK1 (Homo sapiens (Human), UniProt P23458); assay: LanthaScreen JAK biochemical assay (JAK1)
JAK3 = JAK3 (Homo sapiens (Human), UniProt P52333); assay: LanthaScreen JAK biochemical assay (JAK3)
[1] = tested on: IL-4 induced STAT6 phosphorylation in THP-1 human monocytic cells; assay: Cellular JAK potency assay, THP-1
JAK2 = JAK2 (Homo sapiens (Human), UniProt O60674); assay: LanthaScreen JAK biochemical assay (JAK2)
Chain of JAK2 (O60674 whole entry): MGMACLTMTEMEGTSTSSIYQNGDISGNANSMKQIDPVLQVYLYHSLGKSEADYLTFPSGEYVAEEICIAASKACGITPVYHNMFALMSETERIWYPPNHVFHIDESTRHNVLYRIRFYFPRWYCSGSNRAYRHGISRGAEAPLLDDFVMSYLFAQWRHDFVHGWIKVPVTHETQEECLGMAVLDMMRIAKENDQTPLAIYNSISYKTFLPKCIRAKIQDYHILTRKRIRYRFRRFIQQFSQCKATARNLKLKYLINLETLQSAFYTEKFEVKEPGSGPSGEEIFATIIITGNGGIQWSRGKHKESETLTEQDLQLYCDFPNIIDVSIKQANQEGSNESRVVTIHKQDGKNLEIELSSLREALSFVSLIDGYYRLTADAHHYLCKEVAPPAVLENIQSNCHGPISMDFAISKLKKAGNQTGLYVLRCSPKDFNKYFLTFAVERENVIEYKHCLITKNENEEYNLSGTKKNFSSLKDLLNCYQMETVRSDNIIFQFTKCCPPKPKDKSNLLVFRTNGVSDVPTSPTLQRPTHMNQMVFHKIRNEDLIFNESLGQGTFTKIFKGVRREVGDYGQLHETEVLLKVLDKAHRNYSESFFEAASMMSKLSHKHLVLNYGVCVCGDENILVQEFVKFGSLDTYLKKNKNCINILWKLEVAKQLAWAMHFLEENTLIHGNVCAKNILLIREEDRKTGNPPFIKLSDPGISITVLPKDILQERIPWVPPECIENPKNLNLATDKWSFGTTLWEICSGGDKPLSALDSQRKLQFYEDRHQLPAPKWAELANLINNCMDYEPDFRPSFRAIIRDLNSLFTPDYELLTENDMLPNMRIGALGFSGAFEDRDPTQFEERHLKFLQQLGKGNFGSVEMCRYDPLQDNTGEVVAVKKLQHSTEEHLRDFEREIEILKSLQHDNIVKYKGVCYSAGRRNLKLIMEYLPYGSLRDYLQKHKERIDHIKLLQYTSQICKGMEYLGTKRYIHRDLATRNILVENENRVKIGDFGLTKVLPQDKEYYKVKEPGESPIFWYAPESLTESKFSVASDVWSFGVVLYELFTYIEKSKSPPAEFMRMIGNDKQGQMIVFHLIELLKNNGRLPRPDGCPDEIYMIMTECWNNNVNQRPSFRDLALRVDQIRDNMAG

Tyk2 = Tyk2 (Homo sapiens (Human), UniProt P29597); assay: LanthaScreen JAK biochemical assay (Tyk2)
Chain of Tyk2 (P29597 whole entry): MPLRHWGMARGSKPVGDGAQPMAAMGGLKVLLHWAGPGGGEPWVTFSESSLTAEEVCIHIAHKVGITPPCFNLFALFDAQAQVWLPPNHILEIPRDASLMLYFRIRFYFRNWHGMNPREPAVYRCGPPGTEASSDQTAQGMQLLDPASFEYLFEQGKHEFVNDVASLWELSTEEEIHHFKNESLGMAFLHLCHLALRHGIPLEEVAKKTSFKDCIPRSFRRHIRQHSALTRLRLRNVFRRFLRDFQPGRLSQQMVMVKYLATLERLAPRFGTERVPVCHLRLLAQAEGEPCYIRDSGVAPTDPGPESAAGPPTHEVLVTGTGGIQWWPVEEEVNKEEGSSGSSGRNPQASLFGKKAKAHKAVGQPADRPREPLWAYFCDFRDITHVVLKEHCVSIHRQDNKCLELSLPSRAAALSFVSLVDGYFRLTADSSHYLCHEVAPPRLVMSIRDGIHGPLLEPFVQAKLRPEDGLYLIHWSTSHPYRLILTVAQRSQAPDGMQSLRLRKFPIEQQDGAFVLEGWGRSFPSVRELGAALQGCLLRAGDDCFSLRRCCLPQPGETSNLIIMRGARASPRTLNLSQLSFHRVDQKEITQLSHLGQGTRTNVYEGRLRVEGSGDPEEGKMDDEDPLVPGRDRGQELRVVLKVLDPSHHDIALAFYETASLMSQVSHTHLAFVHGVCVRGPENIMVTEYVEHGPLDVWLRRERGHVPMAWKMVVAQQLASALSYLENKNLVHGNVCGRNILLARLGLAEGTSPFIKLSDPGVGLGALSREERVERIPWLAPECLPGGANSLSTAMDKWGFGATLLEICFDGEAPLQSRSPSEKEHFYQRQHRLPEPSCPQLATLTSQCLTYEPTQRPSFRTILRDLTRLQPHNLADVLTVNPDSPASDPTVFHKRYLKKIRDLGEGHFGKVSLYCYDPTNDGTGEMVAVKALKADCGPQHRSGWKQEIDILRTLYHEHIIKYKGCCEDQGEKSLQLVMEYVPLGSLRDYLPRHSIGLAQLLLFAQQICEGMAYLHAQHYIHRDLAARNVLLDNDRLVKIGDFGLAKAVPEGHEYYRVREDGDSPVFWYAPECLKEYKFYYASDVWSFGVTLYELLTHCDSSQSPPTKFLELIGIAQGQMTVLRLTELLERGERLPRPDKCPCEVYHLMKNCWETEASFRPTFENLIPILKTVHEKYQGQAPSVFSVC

[2] = tested on: IL-13 induced STAT6 phosphorylation in BEAS-2B human lung epithelial cells; assay: AlphaScreen cellular JAK potency assay, BEAS-2B; conditions: IL-13 induced STAT6 phosphorylation, BEAS-2B cells
[3] = IL-4 induced STAT6 phosphorylation, THP-1 cells
[4] = THP-1 cells, IL-4 induced STAT6 phosphorylation

Chain of JAK1 (P23458 whole entry): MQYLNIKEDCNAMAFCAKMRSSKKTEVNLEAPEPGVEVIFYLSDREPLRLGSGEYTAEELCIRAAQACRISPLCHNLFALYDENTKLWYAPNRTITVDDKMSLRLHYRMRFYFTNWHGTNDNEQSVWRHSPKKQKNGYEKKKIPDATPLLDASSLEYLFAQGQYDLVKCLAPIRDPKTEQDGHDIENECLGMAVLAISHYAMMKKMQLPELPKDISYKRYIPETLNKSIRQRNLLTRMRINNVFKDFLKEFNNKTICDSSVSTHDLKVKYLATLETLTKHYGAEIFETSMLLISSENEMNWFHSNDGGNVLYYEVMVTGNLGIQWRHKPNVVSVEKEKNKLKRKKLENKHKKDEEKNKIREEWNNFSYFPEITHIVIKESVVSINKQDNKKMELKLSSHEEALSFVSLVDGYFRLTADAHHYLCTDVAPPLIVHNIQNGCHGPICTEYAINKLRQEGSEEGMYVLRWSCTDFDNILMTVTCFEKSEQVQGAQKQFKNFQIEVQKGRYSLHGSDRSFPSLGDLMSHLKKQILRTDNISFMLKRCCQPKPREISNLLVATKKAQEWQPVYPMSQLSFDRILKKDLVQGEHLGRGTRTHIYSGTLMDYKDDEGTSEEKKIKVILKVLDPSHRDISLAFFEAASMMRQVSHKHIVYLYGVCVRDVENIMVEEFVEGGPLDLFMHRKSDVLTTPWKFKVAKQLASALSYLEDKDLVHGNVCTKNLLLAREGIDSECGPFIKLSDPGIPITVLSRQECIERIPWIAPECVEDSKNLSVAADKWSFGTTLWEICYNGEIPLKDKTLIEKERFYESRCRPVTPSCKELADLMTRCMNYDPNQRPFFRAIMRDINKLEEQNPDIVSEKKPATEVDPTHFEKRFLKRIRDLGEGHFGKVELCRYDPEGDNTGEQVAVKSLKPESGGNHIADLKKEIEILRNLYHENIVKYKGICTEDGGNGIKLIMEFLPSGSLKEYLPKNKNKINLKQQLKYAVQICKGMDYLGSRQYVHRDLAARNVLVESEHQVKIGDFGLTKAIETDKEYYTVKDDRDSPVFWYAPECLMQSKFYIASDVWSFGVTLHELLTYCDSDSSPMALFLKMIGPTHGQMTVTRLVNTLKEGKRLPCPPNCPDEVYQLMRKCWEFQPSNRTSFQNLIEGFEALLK

| SMILES | JAK 1 (pKi) (JAK1) | JAK 3 (pKi) (JAK3) | THP-1 IL4 pIC50 [1, 3] | JAK 2 (pKi) (JAK2) | THP-1 IL4 pIC50 [1, 4] | Tyk 2 (pKi) (Tyk2) | BEAS2B pIC50 [2] |
| --- | --- | --- | --- | --- | --- | --- | --- |
| Cc1cc(Nc2cc3ncccc3c(N[C@@H]3C[C@H]4CC[C@@H](C3)N4CC(=O)N(C)C)n2)n[nH]1 [Example 1-8] | B (B represents a pKi value between 9 and 10 (Ki between 1 nM and 0.1 nM)) | C (C represents a pKi value between 7 and 9 (Ki between 100 nM and 1 nM)) | C (C represents a pEC50 value<6.7 (EC50>200 nM)) |  |  |  |  |
| Cc1cc(Nc2cc3ncccc3c(N[C@@H]3C[C@H]4CC[C@@H](C3)N4C(=O)CN(C)C)n2)n[nH]1 [Example 2-5] | B (B represents a pKi value between 9 and 10 (Ki between 1 nM and 0.1 nM)) | C (C represents a pKi value between 7 and 9 (Ki between 100 nM and 1 nM)) | C (C represents a pEC50 value<6.7 (EC50>200 nM)) |  |  |  |  |
| COC(=O)CCN1[C@@H]2CCC[C@H]1C[C@H](Nc1nc(Nc3cc(C)[nH]n3)cc3ncccc13)C2 [Example 1-33] | B (B represents a pKi value between 9 and 10 (Ki between 1 nM and 0.1 nM)) | C (C represents a pKi value between 7 and 9 (Ki between 100 nM and 1 nM)) | C (C represents a pEC50 value<6.7 (EC50>200 nM)) | B (B represents a pKi value between 9 and 10 (Ki between 1 nM and 0.1 nM)) |  |  |  |
| Cc1cc(Nc2cc3ncccc3c(N[C@@H]3C[C@H]4CC[C@@H](C3)N4CC(N)=O)n2)n[nH]1 [Example 1-6] | B (B represents a pKi value between 9 and 10 (Ki between 1 nM and 0.1 nM)) | C (C represents a pKi value between 7 and 9 (Ki between 100 nM and 1 nM)) | C (C represents a pEC50 value<6.7 (EC50>200 nM)) | B (B represents a pKi value between 9 and 10 (Ki between 1 nM and 0.1 nM)) |  |  |  |
| Cc1cc(Nc2cc3nc(CN4CCN(C)CC4)ccc3c(N[C@@H]3C[C@H]4CC[C@@H](C3)N4CC(C)C)n2)n[nH]1 [Example 5-38] |  | C (C represents a pKi value between 7 and 9 (Ki between 100 nM and 1 nM)) |  |  |  |  |  |
| CNC(=O)CN1[C@@H]2CC[C@H]1C[C@H](Nc1nc(Nc3cc(C)[nH]n3)cc3ncc(C(=O)OC)cc13)C2 [Example 6-42] | B (B represents a pKi value between 9 and 10 (Ki between 1 nM and 0.1 nM)) | C (C represents a pKi value between 7 and 9 (Ki between 100 nM and 1 nM)) |  | B (B represents a pKi value between 9 and 10 (Ki between 1 nM and 0.1 nM)) | C (C represents a pEC50 value<6.7 (EC50>200 nM)) |  |  |
| C=CCOC(=O)N1[C@@H]2CC[C@H]1C[C@H](Nc1nc(Nc3cc(C)[nH]n3)cc3ncc(OC)cc13)C2 [Example 6-19] | B (B represents a pKi value between 9 and 10 (Ki between 1 nM and 0.1 nM)) | C (C represents a pKi value between 7 and 9 (Ki between 100 nM and 1 nM)) |  |  | B (B represents a pEC50 value between 6.7 and 7.5 (EC50 between 200 nM and 32 nM)) |  |  |
| Cc1cc(Nc2cc3ncccc3c(N[C@@H]3C[C@H]4CCC[C@@H](C3)N4Cc3ccc(O)cc3)n2)n[nH]1 [Example 1-50] | A (A represents a pKi value≥10 (Ki≤0.1 nM)) | C (C represents a pKi value between 7 and 9 (Ki between 100 nM and 1 nM)) | B (B represents a pEC50 value between 6.7 and 7.5 (EC50 between 200 nM and 32 nM)) | A (A represents a pKi value≥10 (Ki≤0.1 nM)) |  |  |  |
| Cc1cc(Nc2cc3nc(CN4CCN(C)CC4)ccc3c(N[C@@H]3C[C@H]4CC[C@@H](C3)N4CCC#N)n2)n[nH]1 [Example 5-37] |  | B (B represents a pKi value between 9 and 10 (Ki between 1 nM and 0.1 nM)) | B (B represents a pEC50 value between 6.7 and 7.5 (EC50 between 200 nM and 32 nM)) |  |  |  |  |
| Cc1cc(Nc2nc(N[C@@H]3C[C@H]4CC[C@@H](C3)N4C(=O)CN(C)C)c3cccnc3c2F)n[nH]1 [Example 8-7] |  | C (C represents a pKi value between 7 and 9 (Ki between 100 nM and 1 nM)) |  |  | C (C represents a pEC50 value<6.7 (EC50>200 nM)) |  |  |
| Cc1cc(Nc2cc3ncccc3c(N[C@@H]3C[C@H]4CCC[C@@H](C3)N4CC(=O)N[C@@H]3CCOC3=O)n2)n[nH]1 [Example 1-41] |  | B (B represents a pKi value between 9 and 10 (Ki between 1 nM and 0.1 nM)) | C (C represents a pEC50 value<6.7 (EC50>200 nM)) | A (A represents a pKi value≥10 (Ki≤0.1 nM)) |  |  |  |
| CCS(=O)(=O)N1[C@@H]2CCC[C@H]1C[C@H](Nc1nc(Nc3cc(C)[nH]n3)cc3nc(CN4CCOCC4)ccc13)C2 [Example 5-23] | A (A represents a pKi value≥10 (Ki≤0.1 nM)) | B (B represents a pKi value between 9 and 10 (Ki between 1 nM and 0.1 nM)) | A (A represents a pEC50 value≥7.5 (EC50≤32 nM)) | A (A represents a pKi value≥10 (Ki≤0.1 nM)) |  |  |  |
| Cc1cc(Nc2nc(N[C@@H]3C[C@H]4CC[C@@H](C3)N4CCC#N)c3cccnc3c2F)n[nH]1 [Example 8-1] | B (B represents a pKi value between 9 and 10 (Ki between 1 nM and 0.1 nM)) | C (C represents a pKi value between 7 and 9 (Ki between 100 nM and 1 nM)) |  | B (B represents a pKi value between 9 and 10 (Ki between 1 nM and 0.1 nM)) | B (B represents a pEC50 value between 6.7 and 7.5 (EC50 between 200 nM and 32 nM)) |  |  |
| COc1ccc2c(N[C@@H]3C[C@H]4CC[C@@H](C3)N4CCF)nc(Nc3cc(C)[nH]n3)cc2n1 [Example 5-3] | B (B represents a pKi value between 9 and 10 (Ki between 1 nM and 0.1 nM)) | C (C represents a pKi value between 7 and 9 (Ki between 100 nM and 1 nM)) | B (B represents a pEC50 value between 6.7 and 7.5 (EC50 between 200 nM and 32 nM)) |  |  |  |  |
| Cc1cc(Nc2cc3ncccc3c(N[C@@H]3C[C@H]4CCC[C@@H](C3)N4CC(=O)N[C@H]3CCOC3=O)n2)n[nH]1 [Example 1-42] |  | B (B represents a pKi value between 9 and 10 (Ki between 1 nM and 0.1 nM)) | C (C represents a pEC50 value<6.7 (EC50>200 nM)) | A (A represents a pKi value≥10 (Ki≤0.1 nM)) |  |  |  |
| Cc1cc(Nc2cc3ncccc3c(N[C@@H]3C[C@H]4CCC[C@@H](C3)N4S(=O)(=O)C3CNC3)n2)n[nH]1 [Example 4-21] |  | C (C represents a pKi value between 7 and 9 (Ki between 100 nM and 1 nM)) | C (C represents a pEC50 value<6.7 (EC50>200 nM)) | B (B represents a pKi value between 9 and 10 (Ki between 1 nM and 0.1 nM)) |  |  |  |
| Cc1cc(Nc2cc3ncccc3c(N[C@@H]3C[C@H]4CCC[C@@H](C3)N4Cc3ccncc3C#N)n2)n[nH]1 [Example 1-56] | B (B represents a pKi value between 9 and 10 (Ki between 1 nM and 0.1 nM)) |  | A (A represents a pEC50 value≥7.5 (EC50≤32 nM)) | B (B represents a pKi value between 9 and 10 (Ki between 1 nM and 0.1 nM)) |  | B (B represents a pKi value between 9 and 10 (Ki between 1 nM and 0.1 nM)) | A (A represents a pEC50 value≥7.5 (EC50≤32 nM)) |
| COc1cnc2cc(Nc3cc(C)[nH]n3)nc(N[C@@H]3C[C@H]4CC[C@@H](C3)N4CCF)c2c1 [Example 6-13] | B (B represents a pKi value between 9 and 10 (Ki between 1 nM and 0.1 nM)) | C (C represents a pKi value between 7 and 9 (Ki between 100 nM and 1 nM)) |  |  | B (B represents a pEC50 value between 6.7 and 7.5 (EC50 between 200 nM and 32 nM)) |  |  |
